How the values were obtained:
Homo sapiens [1] = species on record: Homo sapiens; assay: Inhibition of recombinant human TEC activated F514V mutant (174 to end residues) at 10 uM using EFPIYDFLPAKKK as substrate measured after 40 mins in presence of [gamm33P]ATP by scintillation counting method relative to control
[2] = target: Serine/threonine-protein kinase STK11 (Homo sapiens) (UniProt Q15831); assay: Inhibition of recombinant full-length human LKB1 at 10 uM using LSNLYHQGKFLQTFCGSPLYRRR as substrate measured after 40 mins in presence of [gamm33P]ATP by scintillation counting method relative to control
[3] = target: Serine/threonine-protein kinase N2 (Homo sapiens) (UniProt Q16513); assay: Inhibition of human PRK2 (501 to end residues) at 10 uM using AKRRRLSSLRA as substrate measured after 40 mins in presence of [gamma33P]ATP by scintillation counting method relative to control
[4] = target: Serine/threonine-protein kinase PLK1 (Homo sapiens) (UniProt P53350); assay: Inhibition of full length recombinant human Plk1 at 10 uM using casein as substrate after 40 mins in presence of [gamma33P]ATP by scintillation counting method relative to control
[5] = target: Insulin receptor (Homo sapiens) (UniProt P06213); assay: Inhibition of recombinant human IR (1005 to 1310 residues) at 10 uM using KKSRGDYMTMQIG as substrate after 40 mins in presence of [gamma33P]ATP by scintillation counting method relative to control
Homo sapiens [6] = species on record: Homo sapiens; assay: Inhibition of full-length recombinant human PKA at 10 uM using LRRASLG as substrate after 40 mins by in presence of [gamma33P]ATP by scintillation counting method relative to control
[7] = target: Serine/threonine-protein kinase pim-2 (Homo sapiens) (UniProt Q9P1W9); assay: Inhibition of recombinant human PIM2 (2 to end residues) at 10 uM using RSRHSSYPAGT as substrate measured after 40 mins in presence of [gamma33P]ATP by scintillation counting method relative to control
[8] = target: Tyrosine-protein kinase Fer (Homo sapiens) (UniProt P16591); assay: Inhibition of recombinant human FER (541 to end residues) at 10 uM using KKKSPGEYVNIEFG as substrate measured after 40 mins in presence of [gamma33P]ATP by scintillation counting method relative to control
[9] = target: Ephrin type-A receptor 5 (Homo sapiens) (UniProt P54756); assay: Inhibition of human EPHA5 (655 to 956 residues) using poly (Glu, Tyr) 4:1 as substrate at 10 uM after 40 mins in presence of [gamma-33P]-ATP by scintillation counting relative to control
[10] = target: Serine/threonine-protein kinase NIM1 (Homo sapiens) (UniProt Q8IY84); assay: Inhibition of recombinant human full length NIM1 at 10 uM using KKKVSRSGLYRSPSMPENLNRPR as substrate incubated for 40 mins in presence of [gamma-33P]-ATP by scintillation counting method relative to control
Saccharomyces cerevisiae = assay: Inhibition of recombinant fungi CK1 (2 to 298 residues) at 10 uM using KRRRALS(p)VAS as substrate incubated for 40 mins in presence of [gamma-33P]-ATP by scintillation counting method relative to control
[11] = target: Serine/threonine-protein kinase Chk2 (Homo sapiens) (UniProt O96017); assay: Inhibition of recombinant human CHK2 (5 to end residues) at 10 uM using KKKVSRSGLYRSPSMPENLNRPR as substrate measured after 40 mins in presence of [gamma33P]ATP by scintillation counting method relative to control
[12] = target: CDK3/Cyclin E (Homo sapiens) (UniProt P24864+Q00526); assay: Inhibition of recombinant full-length human CDK3/cyclinE at 10 uM using histone H1 as substrate measured after 40 mins in presence of [gamma33P]ATP by scintillation counting method relative to control; format: protein-complex assay
[13] = target: CDK2/Cyclin A2 (Homo sapiens) (UniProt P24941+P20248); assay: Inhibition of recombinant full-length human CDK2/cyclinA at 10 uM using histone H1 as substrate measured after 40 mins in presence of [gamma33P]ATP by scintillation counting method relative to control; format: protein-complex assay
[14] = target: Mitogen-activated protein kinase kinase kinase 10 (Homo sapiens) (UniProt Q02779); assay: Inhibition of recombinant human MLK2 (1 to 449 residues) at 10 uM using myelin basic protein as substrate measured after 40 mins in presence of [gamma33P]ATP by scintillation counting method relative to control
[15] = target: Serine/threonine-protein kinase MAK (Homo sapiens) (UniProt P20794); assay: Inhibition of recombinant full-length human MAK at 10 uM using RRRFRPASPLRGPPK as substrate measured after 120 mins in presence of [gamma33P]ATP by scintillation counting method relative to control
[16] = target: Tyrosine-protein kinase BTK (Homo sapiens) (UniProt Q06187); assay: Inhibition of full-length recombinant human BTK at 10 uM using KVEKIGEGTYGVVYK as substrate measured after 40 mins in presence of [gamma33P]ATP by scintillation counting method relative to control
[17] = target: Protein-tyrosine kinase 6 (Homo sapiens) (UniProt Q13882); assay: Inhibition of full-length recombinant human BRK at 10 uM using poly(Glu, Tyr) 4:1 as substrate measured after 40 mins in presence of [gamma33P]ATP by scintillation counting method relative to control
[18] = target: 5'-AMP-activated protein kinase catalytic subunit alpha-1 (Homo sapiens) (UniProt Q13131); assay: Inhibition of recombinant full length human AMPKalpha1 at 10 uM using AMARAASAAALARRR as substrate after 40 mins in presence of [gamma33P]ATP by scintillation counting method relative to control
[19] = target: TGF-beta receptor type-2 (Homo sapiens) (UniProt P37173); assay: Inhibition of recombinant human TGFBR2 (188 to end residues) at 10 uM using myelin basic protein as substrate measured after 120 mins in presence of [gamm33P]ATP by scintillation counting method relative to control
[20] = tested on: Angiopoietin-1 receptor (Homo sapiens), Q02763 [Q939H,Q940H]; assay: Inhibition of human Tie2 Q939H/Q940H mutant (771 to end residues) at 10 uM using poly(Glu, Tyr) 4:1 as substrate measured after 40 mins in presence of [gamma33P]ATP by scintillation counting method relative to control
[21] = target: Serine/threonine-protein kinase ULK1 (Homo sapiens) (UniProt O75385); assay: Inhibition of recombinant human ULK1 (1 to 314 residues) at 10 uM using casein as substrate measured after 40 mins in presence of [gamm33P]ATP by scintillation counting method relative to control
[22] = target: Serine/threonine-protein kinase VRK1 (Homo sapiens) (UniProt Q99986); assay: Inhibition of human VRK1 at 10 uM by radiometric assay relative to control
[23] = target: Histone acetyltransferase KAT2A (Homo sapiens) (UniProt Q92830); assay: Inhibition of human GCN5 at 10 uM after 1 hr by radioisotope-based assay relative to control
Sequence of Histone acetyltransferase KAT2A (Homo sapiens) (Q92830 2-837 limits assumed): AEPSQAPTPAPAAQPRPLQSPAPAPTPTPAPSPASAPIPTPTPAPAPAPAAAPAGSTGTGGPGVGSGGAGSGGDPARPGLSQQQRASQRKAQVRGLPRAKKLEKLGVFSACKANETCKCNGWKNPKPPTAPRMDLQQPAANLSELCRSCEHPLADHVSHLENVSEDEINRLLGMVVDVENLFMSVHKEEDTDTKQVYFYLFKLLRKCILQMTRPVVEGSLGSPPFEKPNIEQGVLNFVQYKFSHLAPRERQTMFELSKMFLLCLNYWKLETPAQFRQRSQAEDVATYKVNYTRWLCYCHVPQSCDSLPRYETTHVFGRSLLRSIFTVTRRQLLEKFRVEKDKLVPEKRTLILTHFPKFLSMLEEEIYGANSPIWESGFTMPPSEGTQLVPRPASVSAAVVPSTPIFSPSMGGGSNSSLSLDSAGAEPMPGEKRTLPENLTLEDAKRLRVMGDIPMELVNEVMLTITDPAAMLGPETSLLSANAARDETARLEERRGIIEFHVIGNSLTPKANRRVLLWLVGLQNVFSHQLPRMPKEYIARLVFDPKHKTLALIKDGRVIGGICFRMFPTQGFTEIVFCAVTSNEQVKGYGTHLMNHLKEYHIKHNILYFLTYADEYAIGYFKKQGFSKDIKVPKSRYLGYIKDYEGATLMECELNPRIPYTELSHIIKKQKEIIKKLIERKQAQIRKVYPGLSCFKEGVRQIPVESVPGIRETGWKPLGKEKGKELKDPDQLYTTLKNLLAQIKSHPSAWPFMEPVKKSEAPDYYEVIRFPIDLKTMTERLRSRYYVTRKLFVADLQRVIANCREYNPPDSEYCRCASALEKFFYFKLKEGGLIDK

Sequence of Serine/threonine-protein kinase VRK1 (Homo sapiens) (Q99986 whole entry): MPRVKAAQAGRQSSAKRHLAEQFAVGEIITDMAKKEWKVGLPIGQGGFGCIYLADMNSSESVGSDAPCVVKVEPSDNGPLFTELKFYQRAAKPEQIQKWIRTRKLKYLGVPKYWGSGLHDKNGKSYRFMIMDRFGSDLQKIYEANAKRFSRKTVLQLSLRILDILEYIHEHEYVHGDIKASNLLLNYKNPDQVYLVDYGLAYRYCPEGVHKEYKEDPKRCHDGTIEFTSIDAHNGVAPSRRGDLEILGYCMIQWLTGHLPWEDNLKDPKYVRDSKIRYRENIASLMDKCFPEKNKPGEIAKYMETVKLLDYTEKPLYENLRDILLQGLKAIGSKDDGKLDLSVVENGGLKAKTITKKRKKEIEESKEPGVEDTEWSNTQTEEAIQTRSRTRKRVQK
Sequence of Protein-tyrosine kinase 6 (Homo sapiens) (Q13882 whole entry, looked up): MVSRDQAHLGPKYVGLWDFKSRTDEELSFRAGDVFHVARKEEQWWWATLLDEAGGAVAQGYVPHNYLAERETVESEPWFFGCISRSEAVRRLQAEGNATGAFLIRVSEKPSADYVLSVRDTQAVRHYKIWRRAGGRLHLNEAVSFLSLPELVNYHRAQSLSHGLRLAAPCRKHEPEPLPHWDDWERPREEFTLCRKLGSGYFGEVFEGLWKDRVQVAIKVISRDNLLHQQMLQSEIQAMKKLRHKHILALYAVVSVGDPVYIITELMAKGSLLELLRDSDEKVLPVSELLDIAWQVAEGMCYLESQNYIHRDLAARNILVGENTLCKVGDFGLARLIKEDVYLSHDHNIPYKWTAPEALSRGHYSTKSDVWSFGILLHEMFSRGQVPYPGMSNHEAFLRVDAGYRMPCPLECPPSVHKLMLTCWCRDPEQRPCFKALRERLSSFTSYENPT
Sequence of 5'-AMP-activated protein kinase catalytic subunit alpha-1 (Homo sapiens) (Q13131 whole entry, looked up): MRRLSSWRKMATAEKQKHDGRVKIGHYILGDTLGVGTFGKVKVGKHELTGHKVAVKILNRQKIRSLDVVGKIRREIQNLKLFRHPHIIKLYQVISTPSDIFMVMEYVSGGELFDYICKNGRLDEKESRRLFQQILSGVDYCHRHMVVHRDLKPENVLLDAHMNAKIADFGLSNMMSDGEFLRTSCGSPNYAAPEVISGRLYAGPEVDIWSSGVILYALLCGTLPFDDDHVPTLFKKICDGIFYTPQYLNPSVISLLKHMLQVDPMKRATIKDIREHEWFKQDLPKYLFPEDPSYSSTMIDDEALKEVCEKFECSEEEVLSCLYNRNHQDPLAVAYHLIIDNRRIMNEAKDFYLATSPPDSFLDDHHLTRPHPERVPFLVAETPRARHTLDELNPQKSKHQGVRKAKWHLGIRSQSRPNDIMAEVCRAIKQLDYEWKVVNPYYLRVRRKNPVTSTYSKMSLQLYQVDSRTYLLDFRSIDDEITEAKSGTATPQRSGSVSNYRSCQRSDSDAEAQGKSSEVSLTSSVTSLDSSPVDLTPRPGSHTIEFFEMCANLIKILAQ
Sequence of Tyrosine-protein kinase BTK (Homo sapiens) (Q06187 whole entry): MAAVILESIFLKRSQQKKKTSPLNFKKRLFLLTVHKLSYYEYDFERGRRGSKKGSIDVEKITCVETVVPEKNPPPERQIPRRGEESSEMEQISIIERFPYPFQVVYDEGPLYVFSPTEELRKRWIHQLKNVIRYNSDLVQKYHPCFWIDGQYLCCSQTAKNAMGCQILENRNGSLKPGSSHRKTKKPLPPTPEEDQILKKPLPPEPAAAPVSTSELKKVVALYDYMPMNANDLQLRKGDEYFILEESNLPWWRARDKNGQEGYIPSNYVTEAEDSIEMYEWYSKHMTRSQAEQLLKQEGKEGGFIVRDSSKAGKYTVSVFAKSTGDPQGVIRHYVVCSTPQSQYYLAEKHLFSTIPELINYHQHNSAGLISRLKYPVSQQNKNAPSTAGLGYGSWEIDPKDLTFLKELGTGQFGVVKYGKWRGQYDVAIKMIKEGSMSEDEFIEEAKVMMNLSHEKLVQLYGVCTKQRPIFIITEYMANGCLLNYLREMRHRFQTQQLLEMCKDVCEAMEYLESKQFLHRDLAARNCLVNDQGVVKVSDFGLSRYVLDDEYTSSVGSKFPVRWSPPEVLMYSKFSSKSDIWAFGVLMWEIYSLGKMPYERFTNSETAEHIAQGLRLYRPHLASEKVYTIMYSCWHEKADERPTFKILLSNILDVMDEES
Sequence of Serine/threonine-protein kinase STK11 (Homo sapiens) (Q15831 whole entry): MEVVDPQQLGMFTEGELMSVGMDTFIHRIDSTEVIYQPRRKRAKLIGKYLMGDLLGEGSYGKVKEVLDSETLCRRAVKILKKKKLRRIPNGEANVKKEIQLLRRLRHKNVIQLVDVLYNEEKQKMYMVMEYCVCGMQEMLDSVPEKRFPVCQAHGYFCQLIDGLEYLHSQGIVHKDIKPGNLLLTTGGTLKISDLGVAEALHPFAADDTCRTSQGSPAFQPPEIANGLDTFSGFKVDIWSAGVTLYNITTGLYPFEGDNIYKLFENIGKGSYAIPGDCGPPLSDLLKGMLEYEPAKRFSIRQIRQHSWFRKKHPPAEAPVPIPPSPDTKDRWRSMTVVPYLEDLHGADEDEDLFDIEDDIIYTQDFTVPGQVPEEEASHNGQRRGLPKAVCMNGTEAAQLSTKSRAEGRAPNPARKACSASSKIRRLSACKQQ
Sequence of Serine/threonine-protein kinase N2 (Homo sapiens) (Q16513 whole entry, looked up): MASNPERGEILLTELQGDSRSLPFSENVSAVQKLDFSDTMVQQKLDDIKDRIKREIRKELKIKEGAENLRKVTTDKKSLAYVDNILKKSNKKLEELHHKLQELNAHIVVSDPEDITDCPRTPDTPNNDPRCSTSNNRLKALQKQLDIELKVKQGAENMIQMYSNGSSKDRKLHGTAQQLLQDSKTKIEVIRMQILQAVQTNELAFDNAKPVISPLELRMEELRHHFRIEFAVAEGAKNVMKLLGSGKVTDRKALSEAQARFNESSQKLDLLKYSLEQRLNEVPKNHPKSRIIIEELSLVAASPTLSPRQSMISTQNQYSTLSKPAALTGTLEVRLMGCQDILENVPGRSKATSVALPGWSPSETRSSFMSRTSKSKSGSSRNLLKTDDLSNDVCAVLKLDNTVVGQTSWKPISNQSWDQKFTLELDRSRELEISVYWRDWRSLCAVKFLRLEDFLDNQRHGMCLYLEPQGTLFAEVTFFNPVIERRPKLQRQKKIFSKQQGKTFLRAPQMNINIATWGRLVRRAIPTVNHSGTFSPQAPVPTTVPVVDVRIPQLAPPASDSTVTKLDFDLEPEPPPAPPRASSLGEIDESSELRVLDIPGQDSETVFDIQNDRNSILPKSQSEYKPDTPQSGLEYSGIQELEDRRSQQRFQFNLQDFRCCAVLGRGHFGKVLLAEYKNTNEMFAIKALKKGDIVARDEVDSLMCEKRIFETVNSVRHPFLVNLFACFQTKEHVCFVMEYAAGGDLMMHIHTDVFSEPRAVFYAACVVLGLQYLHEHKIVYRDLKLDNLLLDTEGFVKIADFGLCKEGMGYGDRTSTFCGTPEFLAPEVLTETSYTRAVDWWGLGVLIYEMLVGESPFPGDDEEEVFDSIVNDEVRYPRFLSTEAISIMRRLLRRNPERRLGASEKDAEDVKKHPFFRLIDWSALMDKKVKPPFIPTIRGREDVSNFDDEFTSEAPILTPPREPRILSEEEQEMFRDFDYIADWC
Sequence of Serine/threonine-protein kinase PLK1 (Homo sapiens) (P53350 whole entry, the tested form may be a part): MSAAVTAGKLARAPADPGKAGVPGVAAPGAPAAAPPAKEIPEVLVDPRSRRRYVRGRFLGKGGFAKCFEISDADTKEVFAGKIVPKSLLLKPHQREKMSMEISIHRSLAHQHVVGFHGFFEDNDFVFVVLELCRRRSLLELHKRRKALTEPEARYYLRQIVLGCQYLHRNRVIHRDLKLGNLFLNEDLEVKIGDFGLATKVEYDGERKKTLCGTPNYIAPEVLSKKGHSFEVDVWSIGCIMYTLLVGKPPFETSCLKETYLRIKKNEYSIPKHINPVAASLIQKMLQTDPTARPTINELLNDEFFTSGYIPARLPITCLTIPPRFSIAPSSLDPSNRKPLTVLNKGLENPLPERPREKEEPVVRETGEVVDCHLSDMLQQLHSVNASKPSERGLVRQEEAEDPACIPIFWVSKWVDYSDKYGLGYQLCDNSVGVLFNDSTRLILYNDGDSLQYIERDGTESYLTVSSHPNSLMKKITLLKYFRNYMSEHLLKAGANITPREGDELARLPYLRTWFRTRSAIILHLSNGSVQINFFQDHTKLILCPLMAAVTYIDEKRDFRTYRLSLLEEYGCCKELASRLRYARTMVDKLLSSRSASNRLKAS

C=CS(=O)(=O)Nc1ccc(Cc2ccc3ccccc3c2)cc1
inhibition (Homo sapiens [1]): -8%
inhibition [2]: -3%
inhibition [3]: 4%
inhibition [4]: -10%
inhibition [5]: -10%
inhibition (Homo sapiens [6]): 1%
inhibition [7]: 13%
inhibition [8]: 9%
inhibition [9]: 16%
inhibition [10]: -5%
inhibition (Saccharomyces cerevisiae): 5%
inhibition [11]: -7%
inhibition [12]: 7%
inhibition [13]: 10%
inhibition [14]: 2%
inhibition [15]: -3%
inhibition [16]: 5%
inhibition [17]: -6%
inhibition [18]: 2%
inhibition [19]: 9%
inhibition [20]: 18%
inhibition [21]: 7%
inhibition [22]: 3%
inhibition [23]: 2%

— ChEMBL document CHEMBL4376829, “Discovery and biological evaluation of vinylsulfonamide derivatives as highly potent, covalent TEAD autopalmitoylation inhibitors” (Eur J Med Chem, 2019)
